Test results: US9056835B2, “LPA2 receptor-specific benzoic acid derivatives” (University of Tennessee Research Foundation, priority 2012, dated 2015)

Tested on: vector- and LPA2-transduced MEF cells
Assay: Cell proliferation assay
Type: cell-based, mouse
Conditions: LPA 1 μM, OTP 1 μM, GRI977143 10 μM; for cell growth: LPA2-transduced MEF; for cell proliferation: vector-transduced MEF
Description: Mouse embryonic fibroblast (MEF) cells were isolated from E13.5 LPA1&2 double knockout (DKO) embryos. MEFs were transduced with empty vector or LPA2-containing lentiviruses and selected with 1.5 μg/ml puromycin. Cells were maintained in Dulbecco's modified Eagle medium (DMEM) supplemented with 10% (V/V) fetal bovine serum (FBS), 2 mM L-glutamine, 100 U/mL penicillin, and 100 μg/mL streptomycin. Serum-free medium contained 0.1% (W/V) BSA in DMEM. The rat intestinal epithelial cell line 6 (IEC-6) was obtained from the American Type Culture Collection (Rockville, Md.) at passage 13; passages 16-21 were used in all experiments. IEC-6 cells were maintained in a humidified 37° C. incubator in an atmosphere of 90% air and 10% CO2. Growth medium consisted of DMEM supplemented with 5% heat inactivated FBS, 10 μg/mL insulin, and 50 μg/mL gentamycin. The composition of the serum-starvation medium was the same as that of the full growth medium except that it contained no FBS. The McArdle rat hepatoma cell line (RH7777) stably expressing LPA2 receptors was a gift from Dr. Fumikazu Okajima (Gunma University, Maebashi, Japan). RH7777 cells stably expressing LPA1 or LPA3 receptors were generated in-house and had been characterized earlier. Wild type and LPA receptor (LPAR) stably transfected RH7777 cells were grown in DMEM supplemented with 10% FBS and 2 mM L-glutamine in the presence of 250 μg/ml G418. Chinese hamster ovary (CHO) cells stably expressing either vector or LPA4 receptor were a kind gift from Dr. Takao Shimizu (Tokyo University; Tokyo, Japan). Cells were cultured in Ham's F12 medium containing 10% FBS, 2 mM L-glutamine, and 350 μg/ml G418. Rat neuroblastoma cells (B103) were transduced with the lentivirus harboring wild type of FLAG-LPA5 and selected with puromycin to establish the stable cell lines. The stable cells were maintained in DMEM supplemented with 10% FBS and 0.4 μg/ml puromycin. GPR87- and P2Y10-expressing CHO cells and vector-transfected control cells were a gift from Dr. Norihisha Fujita (Ritsumeikan University; Shiga, Japan). The highly invasive MM1 rat hepatoma cells (gift from Dr. Michiko Mukai, Osaka University, Japan) were grown in suspension in DMEM supplemented with 10% (V/V) FBS, 2 mM L-glutamine, 100 U/mL penicillin, and 100 μg/mL streptomycin. Human umbilical vein endothelial cells (HUVEC) were purchased from VEC Technologies Inc. (Rensselaer, N.Y., USA) and cultured in MCDB-131 complete medium supplemented with 10% (V/V) FBS, 90 μg/mL heparin, 10 ng/mL EGF, 1 μg/mL hydrocortisone, 0.2 mg/mL EndoGrowth (VEC Technologies Inc.) supplement, 100 U/mL penicillin G, 100 μg/mL streptomycin, and 25 μg/mL amphotericin B.
For determination of the effect of the LPA receptor ligands on cell growth, vector- and LPA2-transduced MEF cells (2×10^4) were plated in each well of a 24-well plate in full growth medium. Cells were counted the next day and the medium was replaced with medium containing 1.5% (V/V) FBS supplemented with or without 1 μM LPA, 1 μM OTP, or 10 μM GRI977143. Media containing LPA, OTP, and GRI977143 were refreshed every 24 h. The growth rate was measured by counting the number of cells in triplicate using the Z1 Coulter Particle Counter (Beckman Coulter; Hileah, Fla.) as a function of time.

Row | Compound | cell growth | cell proliferation
1 | CCCCCCCC/C=C\CCCCCCCC(=O)OC[C@@H](O)COP(=O)(O)O [LPA 18:1, Lysophosphatidic acid (18:1)] | significant from 24 hours onwards | no significant effect
2 | octadecenyl thiophosphate [OTP] | significant from 24 hours onwards | significantly (p<0.001) increased
3 | O=C(O)c1ccccc1SCCCN1C(=O)c2cccc3cccc(c23)C1=O [GRI977143] | significant from 24 hours onwards | did not cause a significant increase in vector cell proliferation except at 72 hours
